{"source": "patent US9770467B2", "about": "“Compositions and methods for cancer immunotherapy” (THE JOHNS HOPKINS UNIVERSITY, priority 2012, dated 2017)", "key": {"[1]": {"test_system": "primary human PBMCs", "assay": "IFN-α levels in primary human PBMCs by Cytometric Bead Array", "format": "cell-based", "settings": "50 μM, Effectene transfection, 24 hours; fifteen donors", "experimental": "To determine the levels of IFN-α as a signature of CDN potency to activate innate immunity, 1×10^6 primary human PBMCs isolated from fifteen independent human donors were incubated in a 96 well U bottom plate for 30 min at 37° C., 5% CO2 with 50 μM of c-di-GMP (CDG), 1 μg/mL of Interferon Stimulatory DNA (ISD), or 4 μg/mL of Poly (I:C) utilizing Effectene transfection reagent (Qiagen) to transfer the molecules into the PBMC. ISD (Interferon Stimulating DNA) is TLR independent (Stetston, D. B. et. al. Immunity 24, 93-103, January 2006) and signals through cGAS, and is thus STING-dependent, while Poly (I:C) can signal through both TLR3 and RIG-I pathways, and are thus STING-independent. After 30 minutes, the cells were washed and replaced with RPMI media containing 10% FBS and incubated at 37° C., 5% CO2. After 24 hours incubation IFN-α levels were determined by Cytometric Bead Array (CBA, BD Biosciences) (FIG. 8)."}, "[2]": {"molecular_target": "T1, STING (Mus musculus, UniProt Q3TBT3)", "T1 sequence (Q3TBT3 138-378 limits assumed)": "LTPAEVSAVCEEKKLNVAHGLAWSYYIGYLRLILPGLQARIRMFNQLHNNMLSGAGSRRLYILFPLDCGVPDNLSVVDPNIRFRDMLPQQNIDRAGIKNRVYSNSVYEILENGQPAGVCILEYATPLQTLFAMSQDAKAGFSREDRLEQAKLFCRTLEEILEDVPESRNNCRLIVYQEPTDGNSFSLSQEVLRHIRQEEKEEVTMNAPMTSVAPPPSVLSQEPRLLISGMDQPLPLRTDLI", "settings": "cited from earlier work"}}, "data": [{"smiles": "Nc1nc2c(ncn2[C@@H]2O[C@@H]3COP(=O)(O)O[C@H]4[C@@H](O)[C@H](n5cnc6c(=O)[nH]c(N)nc65)O[C@@H]4COP(=O)(O)O[C@H]3[C@H]2O)c(=O)[nH]1", "note": "[cyclic-di-GMP, cyclic diguanylate monophosphate]", "values": [{"measurement": "activation of innate immunity (IFN-α levels)", "setting": "[1]", "result": "activates innate immunity"}, {"measurement": "binding to STING", "setting": "[2]", "result": "binds directly"}]}]}
